Experimental data reported in ChEMBL document CHEMBL4346705, “(±)-trans-Dihydronarciclasine and (±)-trans-dihydrolycoricidine analogues modified in their ring A: Evaluation of their anticancer activity and a SAR study” (2019).

Key:
Type in all cases: functional
[1] = system: K562; test: Antiproliferative activity against human K562 cells assessed as cell viability at 10^-5 M incubated for 48 hrs by sulforhodamine B assay relative to control; conditions: K562, 48 h, read-out: Activity
[2] = system: MOLT-4; test: Antiproliferative activity against human MOLT4 cells assessed as cell viability at 10^-5 M incubated for 48 hrs by sulforhodamine B assay relative to control; conditions: MOLT-4, 48 h, read-out: Activity
[3] = system: HOP-92; test: Antiproliferative activity against human HOP92 cells assessed as cell viability at 10^-5 M incubated for 48 hrs by sulforhodamine B assay relative to control; conditions: HOP-92, 48 h, read-out: Activity
[4] = system: NCI-H322M; test: Antiproliferative activity against human NCI-H322M cells assessed as cell viability at 10^-5 M incubated for 48 hrs by sulforhodamine B assay relative to control; conditions: read-out: Activity
[5] = system: COLO 205; test: Antiproliferative activity against human COLO205 cells assessed as cell viability at 10^-5 M incubated for 48 hrs by sulforhodamine B assay relative to control; conditions: COLO 205, 48 h, read-out: Activity
[6] = system: HCC 2998; test: Antiproliferative activity against human HCC2998 cells assessed as cell viability at 10^-5 M incubated for 48 hrs by sulforhodamine B assay relative to control; conditions: HCC 2998, 48 h, read-out: Activity
[7] = system: HT-29; test: Antiproliferative activity against human HT-29 cells assessed as cell viability at 10^-5 M incubated for 48 hrs by sulforhodamine B assay relative to control; conditions: HT-29, 48 h, read-out: Activity
[8] = system: SW-620; test: Antiproliferative activity against human SW620 cells assessed as cell viability at 10^-5 M incubated for 48 hrs by sulforhodamine B assay relative to control; conditions: SW-620, 48 h, read-out: Activity
[9] = system: SF-295; test: Antiproliferative activity against human SF295 cells assessed as cell viability at 10^-5 M incubated for 48 hrs by sulforhodamine B assay relative to control; conditions: SF-295, 48 h, read-out: Activity
[10] = system: SF-539; test: Antiproliferative activity against human SF539 cells assessed as cell viability at 10^-5 M incubated for 48 hrs by sulforhodamine B assay relative to control; conditions: SF-539, 48 h, read-out: Activity
[11] = system: SNB-75; test: Antiproliferative activity against human SNB75 cells assessed as cell viability at 10^-5 M incubated for 48 hrs by sulforhodamine B assay relative to control; conditions: SNB-75, 48 h, read-out: Activity
[12] = system: LOX IMVI; test: Antiproliferative activity against human LOXIMVI cells assessed as cell viability at 10^-5 M incubated for 48 hrs by sulforhodamine B assay relative to control; conditions: read-out: Activity
[13] = system: M14; test: Antiproliferative activity against human M14 cells assessed as cell viability at 10^-5 M incubated for 48 hrs by sulforhodamine B assay relative to control; conditions: M14, 48 h, read-out: Activity
[14] = system: MDA-MB-435; test: Antiproliferative activity against human MDA-MB-435 cells assessed as cell viability at 10^-5 M incubated for 48 hrs by sulforhodamine B assay relative to control; conditions: MDA-MB-435, 48 h, read-out: Activity
[15] = system: SK-MEL-2; test: Antiproliferative activity against human SK-MEL-2 cells assessed as cell viability at 10^-5 M incubated for 48 hrs by sulforhodamine B assay relative to control; conditions: SK-MEL-2, 48 h, read-out: Activity
[16] = system: SK-MEL-5; test: Antiproliferative activity against human SK-MEL-5 cells assessed as cell viability at 10^-5 M incubated for 48 hrs by sulforhodamine B assay relative to control; conditions: SK-MEL-5, 48 h, read-out: Activity
[17] = system: OVCAR-3; test: Antiproliferative activity against human OVCAR3 cells assessed as cell viability at 10^-5 M incubated for 48 hrs by sulforhodamine B assay relative to control; conditions: OVCAR-3, 48 h, read-out: Activity
[18] = system: OVCAR-4; test: Antiproliferative activity against human OVCAR4 cells assessed as cell viability at 10^-5 M incubated for 48 hrs by sulforhodamine B assay relative to control; conditions: OVCAR-4, 48 h, read-out: Activity
[19] = system: OVCAR-5; test: Antiproliferative activity against human OVCAR5 cells assessed as cell viability at 10^-5 M incubated for 48 hrs by sulforhodamine B assay relative to control; conditions: OVCAR-5, 48 h, read-out: Activity
[20] = system: NCI/ADR-RES; test: Antiproliferative activity against human NCI-ADR-RES cells assessed as cell viability at 10^-5 M incubated for 48 hrs by sulforhodamine B assay relative to control; conditions: read-out: Activity
[21] = system: SK-OV-3; test: Antiproliferative activity against human SKOV3 cells assessed as cell viability at 10^-5 M incubated for 48 hrs by sulforhodamine B assay relative to control; conditions: SK-OV-3, 48 h, read-out: Activity
[22] = system: A498; test: Antiproliferative activity against human A498 cells assessed as cell viability at 10^-5 M incubated for 48 hrs by sulforhodamine B assay relative to control; conditions: A498, 48 h, read-out: Activity
[23] = system: ACHN; test: Antiproliferative activity against human ACHN cells assessed as cell viability at 10^-5 M incubated for 48 hrs by sulforhodamine B assay relative to control; conditions: read-out: Activity
[24] = system: CAKI-1; test: Antiproliferative activity against human Caki1 cells assessed as cell viability at 10^-5 M incubated for 48 hrs by sulforhodamine B assay relative to control; conditions: CAKI-1, 48 h, read-out: Activity
[25] = system: RXF 393; test: Antiproliferative activity against human RXF393 cells assessed as cell viability at 10^-5 M incubated for 48 hrs by sulforhodamine B assay relative to control; conditions: RXF 393, 48 h, read-out: Activity
[26] = system: SN12C; test: Antiproliferative activity against human SN12C cells assessed as cell viability at 10^-5 M incubated for 48 hrs by sulforhodamine B assay relative to control; conditions: read-out: Activity
[27] = system: TK-10; test: Antiproliferative activity against human TK10 cells assessed as cell viability at 10^-5 M incubated for 48 hrs by sulforhodamine B assay relative to control; conditions: TK-10, 48 h, read-out: Activity
[28] = system: UO-31; test: Antiproliferative activity against human UO31 cells assessed as cell viability at 10^-5 M incubated for 48 hrs by sulforhodamine B assay relative to control; conditions: UO-31, 48 h, read-out: Activity
[29] = system: PC-3; test: Antiproliferative activity against human PC3 cells assessed as cell viability at 10^-5 M incubated for 48 hrs by sulforhodamine B assay relative to control; conditions: PC-3, 48 h, read-out: Activity
[30] = system: MCF7; test: Antiproliferative activity against human MCF7 cells assessed as cell viability at 10^-5 M incubated for 48 hrs by sulforhodamine B assay relative to control; conditions: MCF7, 48 h, read-out: Activity
[31] = system: Hs-578T; test: Antiproliferative activity against human Hs 578T cells assessed as cell viability at 10^-5 M incubated for 48 hrs by sulforhodamine B assay relative to control; conditions: read-out: Activity
[32] = system: T47D; test: Antiproliferative activity against human T47D cells assessed as cell viability at 10^-5 M incubated for 48 hrs by sulforhodamine B assay relative to control; conditions: read-out: Activity

Which viability at 10 µM [1] does the source give for `CCCOc1cc2c(cc1OCC)C1CC(O)C(O)C(O)C1NC2=O` (racemic) here?
Its viability at 10 µM is 105%.

And the viability at 10 µM [2]?
Its viability at 10 µM is 104%.

What about the viability at 10 µM [3] of the same molecule?
The viability at 10 µM was 110%.

And the viability at 10 µM [4]?
The viability at 10 µM was 104%.

And the viability at 10 µM [5]?
Its viability at 10 µM is 110%.

And the viability at 10 µM [6]?
Its viability at 10 µM is 106%.

What about the viability at 10 µM [7] of the same molecule?
Its viability at 10 µM is 107%.

What about the viability at 10 µM [8] of the same molecule?
Its viability at 10 µM is 101%.

What about the viability at 10 µM [9] of the same molecule?
The viability at 10 µM was 102%.

What about the viability at 10 µM [10] of the same molecule?
The viability at 10 µM was 99.2%.

And the viability at 10 µM [11]?
Its viability at 10 µM is 95.3%.

And the viability at 10 µM [12]?
Its viability at 10 µM is 96.7%.

What about the viability at 10 µM [13] of the same molecule?
Its viability at 10 µM is 103%.

And the viability at 10 µM [14]?
Its viability at 10 µM is 105%.

And the viability at 10 µM [15]?
The viability at 10 µM was 105%.

What about the viability at 10 µM [16] of the same molecule?
Its viability at 10 µM is 100%.

And the viability at 10 µM [17]?
The viability at 10 µM was 112%.

What about the viability at 10 µM [18] of the same molecule?
Its viability at 10 µM is 107%.

What about the viability at 10 µM [19] of the same molecule?
The viability at 10 µM was 105%.

And the viability at 10 µM [20]?
Its viability at 10 µM is 105%.

And the viability at 10 µM [21]?
The viability at 10 µM was 109%.

And the viability at 10 µM [22]?
The viability at 10 µM was 115%.

What about the viability at 10 µM [23] of the same molecule?
Its viability at 10 µM is 107%.

And the viability at 10 µM [24]?
The viability at 10 µM was 95.9%.

And the viability at 10 µM [25]?
Its viability at 10 µM is 109%.

What about the viability at 10 µM [26] of the same molecule?
The viability at 10 µM was 112%.

What about the viability at 10 µM [27] of the same molecule?
Its viability at 10 µM is 99%.

And the viability at 10 µM [28]?
The viability at 10 µM was 88.9%.

And the viability at 10 µM [29]?
The viability at 10 µM was 97.1%.

And the viability at 10 µM [30]?
Its viability at 10 µM is 99%.

What about the viability at 10 µM [31] of the same molecule?
Its viability at 10 µM is 96.9%.

And the viability at 10 µM [32]?
The viability at 10 µM was 105%.
